According to patent US11304916B2 (priority 2019, dated 2022):
Entries after “also recorded” stand apart in the source; their conditions may differ. Where two headings read alike, the source gives them in different places.

Legend:
STx2-induced cell death = format: cell-based, human
[1] = system: transport of STx2B to the Golgi apparatus; format: cell-based, human
[2] = system: pH of endolysosomal compartments; format: cell-based, human
[3] = system: transport of STx2B to the Golgi apparatus; conditions: cited from earlier work
[4] = system: transport of STx1 B-subunit (STx1B) to the Golgi; conditions: cited from earlier work
lethal STx1 toxicosis [5] = conditions: mouse, in vivo; cited from earlier work
[6] = system: recruitment of retromer component Vps26 to early endosomes; format: cell-based, human
HeLa cells = conditions: 10 μM
[7] = system: transport of STx1 B-subunit (STx1B) to the Golgi; format: cell-based, human
STx1-induced cell death = format: cell-based, human
LC3-positive punctae = format: cell-based, human
lethal STx1 toxicosis [8] = conditions: mouse, in vivo
lethal STx2 toxicosis = conditions: mouse, in vivo

CC/C(=C(\c1ccc(O)cc1)c1ccc(OCCN(C)C)cc1)c1ccccc1 [4-hydroxytamoxifen, (Z)-4-(1-(4-(2-(dimethylamino)ethoxy)phenyl)-2-phenylbut-1-en-1-yl)phenol]
Protection against STx2-induced cell death relative to tamoxifen (STx2-induced cell death): A lower level of protection

CO/C1=C\C(C)=C\[C@@H](C)[C@@H](O)[C@@H](C)C/C(C)=C/C=C/[C@H](OC)[C@@H]([C@@H](C)[C@@H](O)[C@H](C)[C@@]2(O)C[C@@H](O)[C@H](C)[C@@H](C(C)C)O2)OC1=O [bafilomycin A1]
STx2B transport after short treatment [1]: did not have an effect; also recorded: There were no differences between groups
Transport of STx2B to the Golgi apparatus [1]: robustly inhibited the transport of STx2B to the Golgi apparatus
Change in endolysosomal pH (Lysosensor signal) [2]: a similar effect was observed
Morphology of endolysosomal compartments [2]: morphological differences were apparent

CCN(CC)CCCC(C)Nc1ccnc2cc(Cl)ccc12 (stereo not drawn) [chloroquine]
Transport of STx2B to the Golgi apparatus [1]: inhibitors of STx2B transport

CC/C(=C(\c1ccc(O)cc1)c1ccc(OCCNC)cc1)c1ccccc1 [endoxifen, (Z)-4-(1-(4-(2-(methylamino)ethoxy)phenyl)-2-phenylbut-1-en-1-yl)phenol]
Protection against STx2-induced cell death relative to tamoxifen (STx2-induced cell death): substantially weaker than tamoxifen or 4-hydroxytamoxifen

[Mn+2] [manganese]
Sensitivity of STx2 transport to manganese (literature) [3]: manganese-insensitive
Early endosome-to-Golgi transport of STx1 (literature) [4]: blocks the early endosome-to-Golgi transport of STx1
Protection against lethal STx1-toxicosis (literature) (lethal STx1 toxicosis [5]): protects cells and mice against lethal STx1-toxicosis

OCCOc1ccc(/C(=C(/CCCl)c2ccccc2)c2ccccc2)cc1 [ospemifene]
Transport of STx2B to the Golgi (data not shown) [1]: did not
Protection against STx2-induced cell death relative to tamoxifen (STx2-induced cell death): failed to protect all together
Recruitment of Vps26 to early endosomes [6]: did not

O=C(c1ccc(OCCN2CCCCC2)cc1)c1c(-c2ccc(O)cc2)sc2cc(O)ccc12 [raloxifene, (6-hydroxy-2-(4-hydroxyphenyl)benzo[b]thiophen-3-yl)(4-(2-(piperidin-1-yl)ethoxy)phenyl)methanone]
Protection against STx2-induced cell death relative to tamoxifen (STx2-induced cell death): provided as much protection as tamoxifen against STx2-induced cell death
Cytotoxicity / cell viability of compound by itself (HeLa cells): did not alter cell viability by themselves

CC/C(=C(\c1ccccc1)c1ccc(OCCN(C)C)cc1)c1ccccc1 [tamoxifen, (Z)-2-(4-(1,2-diphenyl-1-butenyl)phenoxy)-N,N-dimethylethan-1-amine]
Fate of STx2B in treated cells [1]: the toxin failed to traffic to the Golgi and instead was rerouted to Rab7-positive late endosomes and degraded
STx2B transport after short treatment [1]: did not have an effect; also recorded: There were no differences between groups
Transport of STx2B to the Golgi apparatus [1]: inhibitors of STx2B transport
Inhibitory effect on STx2B transport compared with chloroquine ([1]; 24 h): had a greater inhibitory effect
Transport of STx1B to the Golgi and STx1B degradation [7]: inhibited the transport of STx1 B-subunit (STx1B) to the Golgi and induced degradation of STx1B
Lowest tamoxifen dose at which protection was evident (STx2-induced cell death): 2.5 µM
Protection against STx2-induced cell death (STx2-induced cell death): ~200 fold
Protection against STx1-induced cell death (STx1-induced cell death): ~50 fold
Change in endolysosomal pH (Lysosensor signal) [2]: an increase evident at early time-points (30-60 min) but not 24 h after treatment
Morphology of endolysosomal compartments [2]: morphological differences were apparent
Positioning of early endosomes [6]: gained a perinuclear prominence
Recruitment of Vps26 to early endosomes ([6]; 10 μM): enhanced
LC3-positive punctae (LC3-positive punctae): elevated
Health until end of experiment, STx1-group (lethal STx1 toxicosis [8]): a subset of tamoxifen-treated mice remained healthy until the end of the experiment
Survival of STx1-treated mice (lethal STx1 toxicosis [8]; ip): significantly improved the survival
Protection against STx2 with additional oral tamoxifen after toxin (lethal STx2 toxicosis): A similar level of protection against STx2
Survival time versus vehicle, STx2 (lethal STx2 toxicosis): survived for significantly longer than those that received vehicle
Survival of STx2-treated mice (lethal STx2 toxicosis; ip): significantly improved the survival
Cytotoxicity / cell viability of compound by itself (HeLa cells): without inducing cytotoxicity

CN(C)CCOc1ccc(/C(=C(/CCCl)c2ccccc2)c2ccccc2)cc1 [toremifene, (Z)-2-(4-(4-chloro-1,2-diphenylbut-1-en-1-yl)phenoxy)-N,N-dimethylethan-1-amine]
Transport of STx2B to the Golgi (data not shown) ([1]; 10 μM): blocked transport of STx2B to the Golgi
Protection against STx2-induced cell death relative to tamoxifen (STx2-induced cell death): provided as much protection as tamoxifen against STx2-induced cell death
Endolysosomal pH at 30 min (data not shown) ([2]; 10 μM, 30 min): increased endolysosomal pH at 30 min
Recruitment of Vps26 to early endosomes ([6]; 10 μM): increased Vps26 levels on early endosomes at 24 h
Cytotoxicity / cell viability of compound by itself (HeLa cells): did not alter cell viability by themselves
